In patent publication US9028856B2, “Synergistic pesticide compositions” (priority 2008, dated 2015):

Tests used:
[1] = test system: housefly, Musca domestica; test: Housefly continuous exposure on treated glazed tile (paper cup arena); assay type: in vivo
Source text: Treatments were allowed to dry overnight. The housefly testing arena consisted of a 16 oz. paper cup where the bottom of the cup was removed and replaced with a piece of standard window screen. Ten adult houseflies (mixed ratio) were placed in each cup and covered with a 4″×5″ index card to prevent escape. Houseflies were continuously exposed to the treatment by inverting the testing arena and sliding the cup from the index card to the treated tile surface. Treatments were replicated a minimum of three times.

[2] = octanol-water partition coefficient (Log K ow), Table 1; cited from earlier work
[3] = test system: spiders; test: Spider control field trial on structures (spider counts in treated and untreated plots); assay type: in vivo; conditions: imidacloprid ca. 22 mg AI per sq. m; deltamethrin ca. 12 mg AI per sq. m
Source text: Replicated plots (e.g., 1 meter sq. or as site dictates) were defined for treatment and observations. All living spiders in this area were counted, and the trial was begun by sweeping down all webbing, being careful not to harm the resident spiders in the process. The combinations were applied in the very sites formerly occupied by the spiders. The sites were re-visited intermittently, and total number of spiders in treated and untreated plots were counted. The evaluations were continued until the control failed, or as long as was practical. All formulations were diluted in water before treatment. All imidacloprid treatments were applied to the plots at the same rate of ca. 22 mg AI per sq. m. of surface area; deltamethrin was applied at the label rate of ca. 12 mg AI per sq. m. of surface area and served as a positive control. All treatments were replicated in three plots.

[4] = test system: ants (persistent ant trails); test: Ant control field trial (ant trail counts after barrier spray); assay type: in vivo
Source text: The purpose of this example was to consider whether combinations of imidacloprid and adjuvant, believed acting as free radical stabilizers, is effective at controlling ant populations. The general methodology used in this analysis first involved locating a site with persistent ant trails; e.g., trails over surfaces of buildings, at structural guidelines (expansion joints, utility lines, and the like), or points where ants emerge from beneath or behind a structural element. A point of observation was fixed along the trail or point of emergence as the individual plot(s) for observations of the effects of treatment on ant activity. The near environment (structural substrate, mulch beds, ground, and the like) was sprayed to form a continuous barrier that intercepts the trailing ants in a barrier ca. 2 ft up and 2 ft out from foundation wall, and extending 2 to 3 feet on either side of the ant trail. After treatment, the observers returned to observe ant activity and count ant traffic at intervals after treatment. The evaluations were continued until the control failed, or as long as was practical. All formulations were diluted in water before treatment. Application rates, in terms of mg AI per sq. m., were as indicated in the tables. deltamethrin served as a positive control. All treatments were replicated in four plots.

[5] = test system: bedbug (Cimex lectularius), susceptible strain; test: Contact efficacy against bedbugs on filter papers in glass dishes; assay type: in vivo
Method: Adult Cimex lectularius, susceptible strain, were used. A solution of the active ingredient in acetone was prepared. In the same mode a complete […]. All these works were done under drawing off conditions. After evaporation of the acetone (30′) the dishes were closed by a glass lid and transferred into the test room.
One day later ten bedbugs, anaesthetized with CO2, were counted into each dish. At regular intervals, knock down was recorded (cumulatively).
The same methodology was used as was used in Example 105.

[6] = test system: Aedes aegypti mosquito; test: USDA Petri Dish Method, 3 min exposure to dipped fiberglass window screen; assay type: in vivo
Method: MATERIALS AND METHODS: Aqueous solutions of 1% deltamethrin with and without an adjuvant composition, which is sold under the tradename Suspend® SC. […] Pre-cut fiberglass screen (5″×5″, or 161.3 cm^2) were dipped in each treatment solution and excessive solution was allowed to drain completely (see FIG. 23 a). Weight of the solution coated on the screen was then determined. The treated screen was then allowed to air-dry overnight. USDA Petri Dish Method was used as initial screening protocol (see FIG. 23 b). Twenty, 4-6 day old female Aedes aegypti were exposed to treated window screen for 3 minutes and then moved onto a clean untreated white paper index card. Treatments were replicated a minimum of three times. Mosquito knockdown was evaluated at 3 minute intervals for the first 15 minutes and then at 5 minute intervals for the remainder of an hour. A small cotton ball with sucrose solution was added on the screen top of the Petri dish as a drinking source. Mortality was evaluated at 24 hours after exposure.
MATERIALS AND METHODS: Several rates of permethrin without adjuvant were prepared using product sold under the tradename Permanone® 40 to determine an effective rate against Aedes aegypti mosquitoes. After determining an effective rate range, aqueous solutions of permethrin at 1.25, 1.0 and 0.05% AI were prepared with and without adjuvant. […] Pre-cut fiberglass screens (5″×5″ or 161.3 cm^2) were dipped in each treatment solution allowing excessive solution to drain completely. Weight of the solution coated on the screen was then determined. The treated screen was then allowed to air-dry overnight. USDA Petri Dish Method was used as initial screening protocol (see photo, right). Twenty, 4-6 day old female Aedes aegypti were exposed to treated window screen for 3 minutes and then moved to a clean untreated white paper index card. Treatments were replicated a minimum of three times. Mosquito knockdown was evaluated at 3 minute intervals for the first 15 minutes and then at 5 minute intervals for the remainder of an hour. A small cotton ball with sucrose solution was added on the screen top of the petri-dish as a drinking source. Mortality was evaluated at 24 hours after exposure.

[7] = 0.00032% imidacloprid (1 mg/m^2) in acetone, filter papers, Table 105
[8] = 0.0016% Imidacloprid in acetone, first test
[9] = 0.0016% Imidacloprid in acetone, second test
[10] = 0.0016% imidacloprid (6 mg/m^2) in acetone, filter papers, Table 105
[11] = 0.008% Imidacloprid in acetone, first test
[12] = 0.008% Imidacloprid in acetone, second test
[13] = 0.0000128% Deltamethrin in acetone, first test
[14] = 0.0000128% Deltamethrin in acetone, second test
[15] = 0.000064% Deltamethrin in acetone, first test
[16] = 0.000064% Deltamethrin in acetone, second test

CC[S+]([O-])c1c(C#N)nn(-c2c(Cl)cc(C(F)(F)F)cc2Cl)c1N (stereo not shown) [Ethiprole (1%)]
Average % Knockdown & Mortality after 3 hr ([1]; Table 58, housefly, glazed tile, continuous exposure, 3 hr): 0%
Average % Knockdown & Mortality after 5 hr ([1]; Table 58, housefly, glazed tile, continuous exposure, 5 hr): 0%
Average % Knockdown & Mortality after 7 hr ([1]; Table 58, housefly, glazed tile, continuous exposure, 7 hr): 3%
Average % Knockdown & Mortality after 24 hr ([1]; Table 58, housefly, glazed tile, continuous exposure, 24 hr): 97%
Average % Knockdown & Mortality after 1 hr ([1]; Table 58, housefly, glazed tile, continuous exposure, adjuvant = Compound A 1% + Compound B 0.5%, 1 hr): 0%

CC[S+]([O-])c1c(C#N)nn(-c2c(Cl)cc(C(F)(F)F)cc2Cl)c1N (stereo not shown) [ethiprole]
mortality after about 6 hours ([1]; ethiprole 0.01% with or without adjuvant (FIG. 52)): about 6%
Log P [2]: 2.90

CNC(=O)Oc1cccc2c1OC(C)(C)O2 [bendiocarb]
Log P [2]: 1.7

O=[N+]([O-])NC1=NCCN1Cc1ccc(Cl)nc1 [imidacloprid]
suppression of spider populations relative to the untreated control (cross trial average) [3]: around 24.5%
reduction in ant activity, cross-trial average (relative to pretreatment counts) [4]: 34.1%
% knock down or moribund after 1 h [5, 7]: 0%
% knock down or moribund after 2 h [5, 7]: 0%
% knock down or moribund after 4 h [5, 7]: 0%
% knock down or moribund after 6 h [5, 7]: 0%
% knock down or moribund after 1 d [5, 7]: 0%
% knock down or moribund after 2 d [5, 7]: 0%
% knock down or moribund after 6 d [5, 7]: 0%
% knock down or moribund after 1 h [5, 8]: 0%
% knock down or moribund after 2 h [5, 8]: 0%
% knock down or moribund after 4 h [5, 8]: 0%
% knock down or moribund after 6 h [5, 8]: 10%
% knock down or moribund after 1 d [5, 8]: 20%
% knock down or moribund after 2 d [5, 8]: 20%
% knock down or moribund after 6 d [5, 8]: 40%
% knock down or moribund after 1 h [5, 9]: 0%
% knock down or moribund after 2 h [5, 9]: 0%
% knock down or moribund after 4 h [5, 9]: 0%
% knock down or moribund after 6 h [5, 9]: 0%
% knock down or moribund after 1 d [5, 9]: 0%
% knock down or moribund after 2 d [5, 9]: 0%
% knock down or moribund after 6 d [5, 9]: 0%
% knock down or moribund after 1 h [5, 10]: 0%
% knock down or moribund after 2 h [5, 10]: 0%
% knock down or moribund after 4 h [5, 10]: 0%
% knock down or moribund after 6 h [5, 10]: 0%
% knock down or moribund after 1 d [5, 10]: 0%
% knock down or moribund after 2 d [5, 10]: 0%
% knock down or moribund after 6 d [5, 10]: 0%
% knock down or moribund after 1 h [5, 11]: 0%
% knock down or moribund after 2 h [5, 11]: 0%
% knock down or moribund after 4 h [5, 11]: 0%
% knock down or moribund after 6 h [5, 11]: 20%
% knock down or moribund after 1 d [5, 11]: 30%
% knock down or moribund after 2 d [5, 11]: 40%
% knock down or moribund after 6 d [5, 11]: 80%
% knock down or moribund after 1 h [5, 12]: 0%
% knock down or moribund after 2 h [5, 12]: 0%
% knock down or moribund after 4 h [5, 12]: 0%
% knock down or moribund after 6 h [5, 12]: 0%
% knock down or moribund after 1 d [5, 12]: 0%
% knock down or moribund after 2 d [5, 12]: 0%
% knock down or moribund after 6 d [5, 12]: 10%
efficacy after 6 days ([5]; Example 106, filter paper, concentrations in the label): 0%

CC1(C)[C@H](C(=O)O[C@H](C#N)c2cccc(Oc3ccccc3)c2)[C@@H]1C=C(Br)Br [deltamethrin]
mortality at 24 hours after exposure ([6]; 1% deltamethrin alone, treated screen): 100%
efficacy of the substance alone (summary in words) ([6]; Aedes aegypti, treated window screen): good knockdown
suppression of spider populations relative to the untreated control (cross trial average) [3]: 83.4%
reduction in ant activity, cross-trial average (relative to pretreatment counts) [4]: 57.9%
% knock down or moribund after 1 h [5, 13]: 0%
% knock down or moribund after 2 h [5, 13]: 0%
% knock down or moribund after 4 h [5, 13]: 0%
% knock down or moribund after 6 h [5, 13]: 0%
% knock down or moribund after 1 d [5, 13]: 20%
% knock down or moribund after 2 d [5, 13]: 20%
% knock down or moribund after 6 d [5, 13]: 20%
% knock down or moribund after 1 h [5, 14]: 0%
% knock down or moribund after 2 h [5, 14]: 0%
% knock down or moribund after 4 h [5, 14]: 0%
% knock down or moribund after 6 h [5, 14]: 0%
% knock down or moribund after 1 d [5, 14]: 10%
% knock down or moribund after 2 d [5, 14]: 10%
% knock down or moribund after 6 d [5, 14]: 40%
% knock down or moribund after 1 h [5, 15]: 20%
% knock down or moribund after 2 h [5, 15]: 20%
% knock down or moribund after 4 h [5, 15]: 70%
% knock down or moribund after 6 h [5, 15]: 70%
% knock down or moribund after 1 d [5, 15]: 70%
% knock down or moribund after 2 d [5, 15]: 80%
% knock down or moribund after 6 d [5, 15]: 100%
% knock down or moribund after 1 h [5, 16]: 0%
% knock down or moribund after 2 h [5, 16]: 40%
% knock down or moribund after 4 h [5, 16]: 40%
% knock down or moribund after 6 h [5, 16]: 40%
% knock down or moribund after 1 d [5, 16]: 40%
% knock down or moribund after 2 d [5, 16]: 60%
% knock down or moribund after 6 d [5, 16]: 60%

CC1(C)[C@H](C(=O)O[C@H](C#N)c2cccc(Oc3ccccc3)c2)[C@@H]1C=C(Br)Br [deltamethrin (1%)]
Average % Knockdown & Mortality after 3 min ([6]; 3 min, Table 26, aqueous deltamethrin/adjuvant, dipped screen, 3 min exposure): 0%
Average % Knockdown & Mortality after 9 min ([6]; 9 min, Table 26, aqueous deltamethrin/adjuvant, dipped screen, 3 min exposure): 0%
Average % Knockdown & Mortality after 15 min ([6]; 15 min, Table 26, aqueous deltamethrin/adjuvant, dipped screen, 3 min exposure): 0%
Average % Knockdown & Mortality after 30 min ([6]; 30 min, Table 26, aqueous deltamethrin/adjuvant, dipped screen, 3 min exposure): 27%
Average % Knockdown & Mortality after 60 min ([6]; 60 min, Table 26, aqueous deltamethrin/adjuvant, dipped screen, 3 min exposure): 84%
Average % Knockdown & Mortality after 24 hr ([6]; 24 hr, Table 26, aqueous deltamethrin/adjuvant, dipped screen, 3 min exposure): 100%
